Source: PMC13376213, “Systematic discovery of motif-based interactions of the auxiliary domains of USP family deubiquitinases” (Nature Communications, 2026)
Ends that are not written are not given here.

Columns and labels:
Type in all cases: binding
USP22 zf-UBP domain = target: T1, USP22 zf-UBP domain (Homo sapiens, UniProt Q9UPT9); assay: FP-monitored affinity measurements, USP22 zf-UBP; details: USP22_zf-UBP; FP displacement by unlabelled peptide
T1 construct: USP22_zf-UBP; Q9UPT9; zf-UBP; 37; 130; 6xHis-GST (N, cleaved yes); made in house; host or cells: Escherichia coli BL21-Gold (DE3)
T1 sequence (Q9UPT9 37-130): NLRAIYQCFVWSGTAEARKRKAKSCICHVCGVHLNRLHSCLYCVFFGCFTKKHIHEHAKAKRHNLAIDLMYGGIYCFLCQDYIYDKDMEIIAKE
Description: (§1) Proteins were expressed in Escherichia coli (E.coli) BL21-Gold (DE3) bacteria. The cDNAs encoding N-terminal 6-histidine-glutathione S-transferase tagged (6xHis-GST), 6xHis-tagged or GST-tagged protein domains in pETM33, pETM11, pGEX6P1 expression vectors respectively, were obtained from Genescript or kindly provided by MRC-PPU (Suppl. Data 1) The bacteria were transformed with the plasmid and grew at 37 °C in 2YT (5 g/L NaCl, 16 g/L tryptone and 10 g/L yeast extract) supplemented with Kanamycin (30 μg/mL) until reaching an OD600 of 0.7. Protein expression was induced with 0.3 mM isopropyl β-D-1 thiogalactopyranoside (IPTG) for 18 h at 18 °C while shaking. For zinc-finger domains, 50 μM of ZnSO4 was added during expression. The bacterial cultures were pelleted for 15 minutes at 4000 x g at 4 °C and stored at −20 °C until purification. The pellets were resuspended in lysis buffer (1× phosphate-buffered saline (PBS), 0.5 % Triton-X, 5 mM MgCl2, 10 μg/mL lysozyme, cOmplete^TM EDTA-free protease inhibitor cocktail (Roche), 10 μg/mL DNAseI) and incubated for 1 h shaking at 4 °C. […] The supernatant was incubated with glutathione (GSH) Sepharose (Cytiva) or Ni2+ Sepharose (Cytiva) for 1 h at 4 °C while shaking. The beads with the bound protein were washed with 1x PBS and eluted with 10 mM reduced glutathione in 50 mM Tris pH 8.0. For fluorescence polarization experiments, the proteins were not eluted from the beads, and the 6xHis-GST tag was cleaved overnight on GSH Sepharose beads at 4 °C while shaking with PreScission Protease in cleavage buffer (50 mM Tris pH 7.5, 150 mM NaCl, 1 mM DTT). The sample containing the cleaved domain was separated from the tag and protease and buffer-exchanged to 50 mM sodium phosphate buffer pH 7.4 with 1 mM DTT using a PD-10 desalting column (Cytiva). The purity and size of the proteins were analyzed by SDS-PAGE electrophoresis.
(§2) The measurements were performed at room temperature in a non-binding black half area 96-well plate (Corning) with a total volume of 50 μL per well. Peptides were obtained from GeneCust (France) with >95% purity. FITC-labeled peptides (N-terminally FITC-labeled without spacer and C-terminally amidated) were dissolved in dimethyl sulfoxide (DMSO), and unlabeled peptides (N-terminally acetylated and C-terminally amidated) were dissolved in 50 mM phosphate buffer pH 7.4. Saturation measurements were performed using a serial dilution of the protein domains in phosphate buffer (25 μL) and the addition of 10 nM FITC-labeled peptide (in phosphate buffer supplemented with 2 mM DTT) (25 μL). […] All measurements were performed in three technical replicates. The data were analyzed using GraphPad Prism version 9.2.0 for MacOS (GraphPad Software, San Diego, California USA, www.graphpad.com). The saturation curves were fitted to the quadratic equation, and the displacement curves were fitted to a sigmoidal dose-response equation as described previously.

USP11 DUSP-UBL domain = target: T2, USP11 DUSP-UBL domain (Homo sapiens, UniProt P51784); assay: FP-based affinity measurements, USP11 DUSP-UBL; details: competitive FP; technical triplicates; read-out: KD, USP11 DUSP-UBL, unlabeled peptide (competitive binding)
T2 construct: USP11_UBL; P51784; UBL; 6xHis-GST (N, cleaved yes); made in house; host or cells: Escherichia coli BL21-Gold (DE3)
Description: as §1
as §2, with “The saturation curves were fitted to the quadratic equation, and the displacement curves were fitted to a sigmoidal dose-response equation as described previously.” left out

USP20 zf-UBP domain = target: T3, USP20 zf-UBP domain (Homo sapiens, UniProt Q9Y2K6); assay: FP-monitored affinity measurements, USP20 zf-UBP; details: for Kd: USP20_UBP, FP displacement by unlabelled peptide, read-out: KD
T3 construct: USP20_UBP; Q9Y2K6; zf-UBP; 99; 6xHis-GST (N, cleaved yes); made in house; host or cells: Escherichia coli BL21-Gold (DE3)
Description: (§3) The measurements were performed at room temperature in a non-binding black half area 96-well plate (Corning) with a total volume of 50 μL per well. […] All measurements were performed in three technical replicates. […] The saturation curves were fitted to the quadratic equation, and the displacement curves were fitted to a sigmoidal dose-response equation as described previously[68].

USP33 zf-UBP domain = target: T4, USP33 zf-UBP domain (Homo sapiens, UniProt Q8TEY7); assay: FP-monitored affinity measurements, USP33 zf-UBP; details: for Kd: USP33_UBP, FP displacement by unlabelled peptide, read-out: KD
T4 construct: USP33_UBP; Q8TEY7; zf-UBP; 36; 130; 6xHis-GST (N, cleaved yes); made in house; host or cells: Escherichia coli BL21-Gold (DE3)
T4 sequence (Q8TEY7 with tags, fused parts or gaps): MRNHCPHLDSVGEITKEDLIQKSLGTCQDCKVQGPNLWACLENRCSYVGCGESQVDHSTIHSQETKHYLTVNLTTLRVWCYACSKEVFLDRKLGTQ
Description: as §3

[1] = FP-monitored affinity measurement (Supplementary Fig. 4D)

T3 sequence (Q9Y2K6 4-99): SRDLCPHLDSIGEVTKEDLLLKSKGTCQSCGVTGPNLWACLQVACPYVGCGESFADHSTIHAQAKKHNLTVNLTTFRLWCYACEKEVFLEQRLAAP
T2 sequence (P51784 67-288): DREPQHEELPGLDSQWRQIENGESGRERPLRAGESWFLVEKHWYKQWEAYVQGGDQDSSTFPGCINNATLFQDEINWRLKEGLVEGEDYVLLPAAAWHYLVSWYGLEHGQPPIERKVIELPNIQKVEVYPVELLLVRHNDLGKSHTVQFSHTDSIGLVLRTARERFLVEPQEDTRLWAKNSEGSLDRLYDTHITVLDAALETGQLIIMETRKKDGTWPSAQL

| Substance | Kd (USP22 zf-UBP domain) [µM] | Kd (USP20 zf-UBP domain) [µM] | other results |
| --- | --- | --- | --- |
| Ac-VPSLDDFAGQSWSSWVERADLP-NH2 [ATXN7L2_18-39] | 2.91 | – | – |
| Ac-VPSPEAFLGKPWSSWID-NH2 [ATXN7L1_36-52] | 11 | – | – |
| Ac-VPSPEAFLGKPWSSWIDAAKLH-NH2 [ATXN7L1_36-57] | 0.1 | – | – |
| SAVTYPDWIGQSYSEV [ORAI1_48-63] | – | – | Kd (USP11 DUSP-UBL domain): > 200 µM |
| ubiquitin C-terminus: ubiquitin C-terminal peptide (YLRLRGG) [reference compound] | – | > 50 | binding of the ubiquitin C-terminus to USP20 zf-UBP (USP20 zf-UBP domain; [1]): do not bind the ubiquitin C-terminus with measurable affinity; binding of the ubiquitin C-terminus to USP33 zf-UBP (USP33 zf-UBP domain; [1]): do not bind the ubiquitin C-terminus with measurable affinity |

Now from value to substance, other results behind:

| Kd (USP22 zf-UBP domain) [µM] | Kd (USP20 zf-UBP domain) [µM] | Substance | other results |
| --- | --- | --- | --- |
| – | ~162 | YPFQPGRMALESQSPG [USP19] | Kd (USP33 zf-UBP domain): 40.6 µM |
| – | 9.02 | YTNSSGKMALNSPQPG [IRAG1] | Kd (USP33 zf-UBP domain): 7.86 µM |
